Source: PubChem BioAssay AID2305 (GlaxoSmithKline (GSK), 2010)
Where “and” joins values, the source holds several entries; their conditions need not be identical. Equal entries are not always repeated.

What follows are molecules tested on P. falciparum 3D7 growth, pLDH absorbance (assay: blood-stage malaria parasite growth potency – strain 3D7, dose response (AID 2305)).
In the case of `CCCS(=O)(=O)c1nc(S(=O)(=O)c2ccc(Cl)cc2)c(N2CCCCC2)s1`, the IC50 is reported as 1290 nM.
`COc1cc2nc(N3CCC(CNC(=O)c4ccc(-c5ccc(C#N)cc5)cc4)CC3)nc(N)c2cc1OC` was tested, and the IC50 was 800 nM.
`Cc1cc(Nc2ccc3ccccc3c2)n2ncnc2n1` was tested, and the IC50 was 170 nM.
With `CCC[C@@H]([C@@H](CC(C)C)C(=O)N[C@@H](CCCCNC(=O)c1ccccn1)C(=O)Nc1nccs1)N(O)C=O` the IC50 was 50 nM.
`O=C(NC1CCN(c2ccnc3cc(Cl)ccc23)C1)c1ccccc1F` (stereo not drawn) was tested, and the IC50 was 970 nM.
`Cc1ccc(O)c(-c2cc(C(=O)Nc3ccc(S(=O)(=O)N4CCCC(C)C4)cc3)[nH]n2)c1` (stereo not drawn) was tested, and the IC50 was 710 nM.
With `O=C(Nc1ccc(OC2CCN(Cc3ccc(F)cc3)C2)c(Cl)c1)c1ccoc1` (stereo not drawn) the IC50 was 940 nM.
For `NC(=O)c1sc(-n2cnc3ccc(OCC4CCNCC4)cc32)cc1OCc1ccccc1C(F)(F)F`, the IC50 was 750 nM.
`Nc1ccnc2ccc(OCCCCCCc3ccccc3)cc12` gave an IC50 of 520 nM.
`CC1(C)N=C(N)N=C(N)N1c1ccc2ccccc2c1` showed an IC50 of 50 nM.
In the case of `O=C(Nc1ccc(Cl)cc1)Nc1ccc2nonc2c1`, the IC50 is reported as 1100 nM.
For `COc1ccc(NC(=O)CCNc2cc(C)nc(NCCc3ccc(F)cc3)n2)cc1`, the IC50 was 850 nM.
For `CC(=O)N1CCC(C(=O)Nc2ccc(-c3cccc(-c4nc5c(C)cccc5[nH]4)c3)cc2)CC1`, the IC50 was 310 nM.
In the case of `O=S(=O)(NCCN1CCCC1)c1ccc(-c2ccc(CN3Cc4ccccc4C3)cc2)s1`, the IC50 is reported as 930 nM.
With `Cc1ccc(NC(=O)c2cc([N+](=O)[O-])ccc2NCc2cccnc2)cc1Cl` the IC50 was 1120 nM.
`O=C(Nc1cccc(C2=NCCCN2)c1)Nc1cccc(C2=NCCCN2)c1` showed an IC50 of 560 nM.
`N#Cc1ccc(C(=O)NC2CCN(CCCCCNC(=O)/C=C/c3ccc(Cl)c(Cl)c3)CC2)cc1` showed an IC50 of 840 nM.
In the case of `O=C(Nc1ccccc1O)C1CCN(c2ncnc3cc(-c4ccc(F)cc4)sc23)CC1`, the IC50 is reported as 870 nM.
Molecule `Cn1cnc2c(SCc3ccccc3OCc3ccccc3)ncnc21` has an IC50 of 920 nM.
`COc1cc2nc(NC3CCN(Cc4ccccc4)CC3)nc(N)c2cc1OC` was tested, and the IC50 was 170 nM.
Molecule `CCC(C)(C)N[C@@H](C)[C@@H](O)c1ccc(C(F)(F)F)cc1` has an IC50 of 750 nM.
Molecule `Cc1cccc2[nH]cc(C3CCN(CC4CCC(NC(=O)/C=C/c5ccc(Cl)c(Cl)c5)CC4)CC3)c12` (stereo not drawn) has an IC50 of 160 nM.
`CO/C(=C\C=C\c1cc2cc(Cl)c(Cl)cc2[nH]1)C(=O)NCCCCN1CCN(c2ccccc2OC)CC1` gave an IC50 of 510 nM.
`COc1ccc2nccc([C@@H](O)CN3CCC(NC(=O)c4ccc(-c5ccccc5)s4)CC3)c2c1` gave an IC50 of 310 nM.
`CCOCCCn1c(=N)c(C(=O)NC(C)c2ccccc2)cc2c(=O)n3cccc(C)c3nc21` (stereo not drawn) gave an IC50 of 1200 nM.
Work on `Cc1cccc(CC2CC(=O)N(c3ccc([N+](=O)[O-])cc3)C2=O)c1` (stereo not drawn) yielded an IC50 of 200 nM.
Molecule `c1ccc(-c2cc(NCCCCCCCCNc3cc(-c4ccccc4)nc4ccccc34)c3ccccc3n2)cc1` has an IC50 of 390 nM.
With `CCN(CCCN1CCCCC1)c1cc(C)nc(Nc2ccc(C)c(F)c2)n1` the IC50 was 270 nM.
In the case of `O=C(Nc1ccc(-c2ccccc2)cc1)Nc1cccc(Cn2nc(Cl)c(N3CCCNCC3)cc2=O)c1`, the IC50 is reported as 680 nM.
In the case of `c1ccc2[nH]c(-c3ccc(-c4ccc(CN5CCCCC5)cc4)cc3)nc2c1`, the IC50 is reported as 750 nM.
`CN(c1cc(NC(=O)c2cccs2)ccn1)C1CCN(Cc2ccccc2)CC1` was tested, and the IC50 was 1020 nM.
With `COc1ccc(-c2ccccc2)cc1NC(=S)NC1CCC(CN2CCC(c3c[nH]c4ccccc34)CC2)CC1` (stereo not drawn) the IC50 was 650 nM and 740 nM.
Work on `COc1cccc2cc(C(=O)N[C@@H](CC(C)C)C(=O)Nc3cc(F)ccc3Br)oc12` yielded an IC50 of 970 nM.
For `NCc1ccc(-c2ccc3c(N)nccc3c2)cc1`, the IC50 was 890 nM.
With `CN1CCN(CC(=O)Nc2cccc(-c3ccc(-c4nc5ccc(C(F)(F)F)cc5[nH]4)s3)c2)CC1` the IC50 was 310 nM.
In the case of `CN(Cc1ccc(NC(=O)NC2CCN(C(=O)/C=C/c3ccc(Cl)c(Cl)c3)CC2)cc1)C1CCOCC1`, the IC50 is reported as 880 nM.
`CCOc1cc(C(=O)Nc2ccc(-c3nc4ccccc4[nH]3)cc2)cc(OCC)c1OCC` gave an IC50 of 230 nM.
With `O=C(/C=C/c1ccc(Cl)c(Cl)c1)NCCCCCN1CCC(NC(=O)Nc2cccc(C(F)(F)F)c2)CC1` the IC50 was 700 nM.
Work on `COc1ccccc1CCN1CCC(CN(C)Cc2ccc(O)c(Cl)c2)CC1` yielded an IC50 of 330 nM.
`COc1ccc2nccc(NN=Cc3ccccc3F)c2c1` gave an IC50 of 620 nM.
Molecule `COc1ccc(CCNCC(O)c2cccc(Br)c2)c(Cl)c1OC` (stereo not drawn) has an IC50 of 1040 nM.
For `Cc1cccc2[nH]c(-c3cccc(-c4cccc(NC(=O)c5csnn5)c4)c3)nc12`, the IC50 was 300 nM.
In the case of `Cc1cccc(Nc2nc(C)cc(N3CCCN(CC4CCCCC4)CC3)n2)c1`, the IC50 is reported as 1120 nM.
`O=C(Nc1ccc2c(c1)CCC2)c1nc(N2CCN(c3ccncc3)CC2)ccc1Cl` gave an IC50 of 1380 nM.
`Nc1c(Cl)cc(C(O)CNCCCCCCOCCC=C2CCOCC2)cc1Cl` (stereo not drawn) gave an IC50 of 630 nM.
`CCCCN(CCCC)CCCN(CCCN(CCCC)CCCC)c1cc(C)nc(Nc2ccc3cc(Br)ccc3c2)n1` was tested, and the IC50 was 320 nM.
`CCOc1ccc2nc(C)cc(NN=Cc3ccncc3)c2c1` was tested, and the IC50 was 990 nM.
`N#Cc1ccc2c(c1)CCN(CCC1CCC(NC(=O)/C=C/c3ccc4[nH]ccc4c3)CC1)CC2` (stereo not drawn) was tested, and the IC50 was 1060 nM.
Work on `O=C(C=Cc1ccccc1O)N1CCC(CN2CCC(c3c[nH]c4ccccc34)CC2)CC1` yielded an IC50 of 960 nM.
`CC(=O)Nc1ccc(OCCCN(Cc2ccccc2OC(F)(F)F)c2ccc(C(F)(F)F)c(C#N)c2)c(Cl)c1` showed an IC50 of 810 nM.
In the case of `CN(CCCNCc1cccc2ccccc12)CCCNCc1cccc2ccccc12`, the IC50 is reported as 720 nM.
For `Cc1cc(NC(=O)Nc2ccc(C(C)(C)C)cc2)c2ccccc2n1`, the IC50 was 720 nM.
`N#Cc1ccc(NC(=NC2CCCc3ccccc32)Nc2ccc(-c3ccccc3)cc2)c(O)c1` (stereo not drawn) showed an IC50 of 780 nM.
For `CC(=O)Nc1ccc([N+](=O)[O-])c2c(Br)cccc12`, the IC50 was 640 nM.
With `Cc1cccc(S(=O)(=O)Nc2cccc(CCN3CCC(N4CCCCC4)CC3)c2)c1` the IC50 was 1330 nM.
With `COc1ccc2nc3cc(Cl)ccc3c(NCCCCN)c2c1` the IC50 was 730 nM.
For `CCNc1cc(C(=O)N[C@@H](Cc2ccccc2)[C@H](O)CNCCCc2ccc(OC)cc2)cc(N2CCCC2=O)c1`, the IC50 was 560 nM.
In the case of `CS(=O)(=O)CCNCc1nc(-c2ccc3ncnc(Nc4ccc(OCc5cccc(F)c5)c(Cl)c4)c3c2)cs1`, the IC50 is reported as 770 nM.
In the case of `Cc1ccc(-c2cc3nc4c(c(NCCCn5ccnc5)n3n2)CCC4)cc1`, the IC50 is reported as 920 nM.
Work on `COc1cc2c(cc1OC)C(C(=O)c1ccccc1)=NCC2` yielded an IC50 of 1090 nM.
With `O=C(CC(=O)C(F)(F)F)c1ccc2c(c1)OCO2` the IC50 was 740 nM.
Work on `Oc1ccc(CCNc2nc(NCc3ccccc3-c3cccc(Cl)c3)nc(N3CCNCC3)n2)cc1` yielded an IC50 of 1280 nM.
`O=C(Nc1cc(Cl)c(Cl)cc1NC(=O)c1cccc(-c2ccccc2)c1O)c1cccc(-c2ccccc2)c1O` was tested, and the IC50 was 510 nM.
Work on `O=C1c2ccccc2C(=O)N1CCOc1c(Br)cc(Br)cc1CNCCCNc1cc(=O)c2ccccc2[nH]1` yielded an IC50 of 840 nM.
In the case of `COc1ccccc1C(=O)C1CCCN(C(=O)c2ccccc2C(F)(F)F)C1` (stereo not drawn), the IC50 is reported as 600 nM.
In the case of `CCN(CC)C(=NC(N)=NCCCCCCN=C(N)N=C(Nc1ccc(Cl)cc1)N(CC)CC)Nc1ccc(Cl)cc1`, the IC50 is reported as 930 nM.
In the case of `O=C(Nc1ccc(-c2cccc(-c3nc4ccc(C(F)(F)F)cc4[nH]3)c2)cc1)c1ccc(=O)[nH]n1`, the IC50 is reported as 1070 nM.
`CCc1cccc(NC(=O)/C=C/c2ccc3c(c2)CN(C)CC3)c1` showed an IC50 of 770 nM.
`CCC(C)(C)c1ccc2nc(N)nc(N)c2c1C` showed an IC50 of 10 nM.
Molecule `N=C1C=C(N)C(=O)c2ccccc21` has an IC50 of 1050 nM.
Molecule `Cc1noc(-c2ccc(NC[C@@H](C)NC[C@H](O)c3cccc(Cl)c3)cc2)n1` has an IC50 of 760 nM.
`Cc1ccc(O)cc1C[C@@H]1C(=O)CC[C@@]2(C)[C@H]1CC[C@]2(C)O` was tested, and the IC50 was 960 nM.
Work on `CN1C(=CC(=O)NC(=O)c2ccccc2)C(C)(C)c2ccccc21` yielded an IC50 of 640 nM.
